This is an account of results in patent publication US10155722B2, “Antitumor compound targeting IDH2 mutation and method of use thereof” (CHIA TAI TIANQING PHARMACEUTICAL GROUP CO., LTD., priority 2015, dated 2018).

One data set addresses IDH2 (R172K, 40-end) (Homo sapiens (Human), UniProt P48735, R172K). Nature of the data set: IDH2 (R172K, 40-end) inhibitory activity, NADPH depletion with diaphorase/resazurin readout. Format: biochemical. To be noted: 80 nM enzyme, 40 μM NADPH, 4 mM α-KG. The protocol:
The inhibitory activity of a compound against IDH2 (R172K, 40-end) was determined by the decrease of a helper factor NADPH. The test compound was pre-incubated with an enzyme and NADPH, and then a reaction was initiated by the addition of a-KG, and performed for 120 minutes under a linear condition. Then, the reaction was terminated by the addition of diaphorase (lipoamide dehydrogenase) and the corresponding substrate resazurin. Diaphorase terminated the IDH2m reaction by decreasing the available helper factor NADPH, which oxidized NADPH to NADP, and reduced resazurin to highly fluorescent resorufin. The amount of remaining helper factor NADPH after a specific reaction time was quantified via an easily detectable fluorophore. Specifically, 2.5 μl of a 3-fold gradient diluted test compound was added to a 384-well plate, and then 5 μl of a reaction buffer (20 mM Tris-HCl, PH7.5; 150 mM NaCl; 10 mM MgC12; 10 mM MnCl2; 0.4 mg/ml BSA and 2 mM DTT) containing 80 nM IDH2 (R172K, 40-end) and 40 μM NADPH was added. Then, the resulting test mixture was incubated for 120 minutes at a temperature of 23° C., and then 2.5 μl of the reaction buffer containing 4 mM α-KG was added to initiate the reaction. After incubating for 120 minutes at room temperature, 5 μl of a termination mixture (0.4 U/ml diaphorase and 40 μM resazurin) prepared with the reaction buffer was added to convert resazurin to resorufin to determine the remaining NADPH. After incubating for 10 minutes at a temperature of 23° C., a fluorescence value was determined through Flexstation 3 at Ex535/Em595.
(Alamar Blue is a resazurin reagent that responds to reducing activity.)

The test system of data set [1] is cells carrying the most common IDH1 mutant. To be noted: cited from earlier work.
For data set [2], the system named is glioma cells carrying the IDH1 mutant. To be noted: cited from earlier work.
The subject of data set [3] is glioma cells. To be noted: treatment of cell cultures; cited from earlier work.
Data set [4] relates to glioma cells. To be noted: oral administration to mice with a transplanted tumour; cited from earlier work.
Data set [5] is described as follows: Pharmacokinetics parameters in rats after intragastric administration. Format: in vivo. To be noted: for AUC(0-inf) / Cmax / Tmax / half-life: rat, po, male rats, intragastric, single dose 5 mg/kg, plasma; for half-life (in words) / metabolism in vivo (in words) / plasma concentration compared with AG-6780 at the same dose: rats, 5 mg/kg intragastric. How it is done: The pharmacokinetic parameters of compounds of the present application were determined by using the following method.
Healthy male adult rats (7-9 weeks old) were used in this study. Each group of animals (3 male rats) was intragastrically administered once at a single dose of 5 mg/kg with 10% DMSO+70% PEG400+20% NS as adjuvants. The animals in the intragastric administration group were fasted overnight before this study. The fasting time period was from 10 hours before administration to 4 hours after administration.
Blood samples were taken at 0.25, 0.5, 1, 2, 4, 6, 8 and 24 h after administration. The animals were anesthetized with isoflurane using an animal anesthesia machine, and then 0.3 mL whole blood samples were taken from the fundus venous plexus. The blood samples were placed in heparin anticoagulant tubes, and centrifuged for 5 min at 4° C. and 4000 rpm. The resulting plasmas were transferred to centrifuge tubes, and stored at −80° C. until analysis.
Verified LC-MS/MS method was used to analyze the plasma samples. Plasma concentration-time data of animals were analyzed using WinNonlin (Professional Edition, version 6.3; Pharsight Company) software. The non-compartmental model was introduced for concentration analysis.

Data set [6] has as its system cells carrying the most common IDH2 mutant. To be noted: cited from earlier work.
The test system of data set [7] is leukemia cells carrying the IDH2 mutant. To be noted: cited from earlier work.

Molecules are shown by their SMILES. Read-outs that look alike come from different tables or passages of the source.

IDH2 (R172K, 40-end), sequence (P48735 40-452 R172K): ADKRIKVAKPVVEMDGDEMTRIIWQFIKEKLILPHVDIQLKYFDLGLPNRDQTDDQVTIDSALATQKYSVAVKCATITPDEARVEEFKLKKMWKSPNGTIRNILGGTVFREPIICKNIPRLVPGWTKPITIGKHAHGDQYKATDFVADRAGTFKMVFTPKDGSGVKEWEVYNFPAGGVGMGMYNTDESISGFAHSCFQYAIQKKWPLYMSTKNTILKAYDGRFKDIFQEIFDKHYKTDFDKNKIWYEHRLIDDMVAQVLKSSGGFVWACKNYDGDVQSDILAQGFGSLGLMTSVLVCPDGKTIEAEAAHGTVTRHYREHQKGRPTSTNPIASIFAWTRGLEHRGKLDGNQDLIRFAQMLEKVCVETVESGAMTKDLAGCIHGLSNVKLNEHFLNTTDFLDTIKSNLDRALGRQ

A word on the IC50: it is the midpoint of a concentration-inhibition curve. Low values mean inhibition by little substance, high ones a need for much substance. `O=C(Nc1cccc(C(F)(F)F)c1)Nc1cc(C(=O)NC2CC2)ccc1-c1ccsc1` [Example 23, N-cyclopropyl-4-(thiophen-3-yl)-3-(3-(3-(trifluoromethyl)phenyl)ureido)benzamide] displayed an IC50 against IDH2 (R172K, 40-end) of 551 nM. This lies in the sub-micromolar range.

With `Cc1ccccc1C(C(=O)NC1CCCCC1)N(C(=O)Cn1ccnc1C)c1cccc(F)c1` (centres unmarked) [AGI-5198], the “generation of 2-HG” value in data set [1] is “inhibit the generation of 2-HG”. The “expression of mature markers” value in data set [2] was “enhanced expression of mature markers”. Also, the “growth rate of glioma cells” value in the data set with glioma cells [3] and with glioma cells [4] was “inhibit the growth rate” in each case.

Usually AUC(0-inf) stands for total exposure, with the tail of the curve extrapolated. Usually Cmax stands for the peak of the concentration-time curve. As a reminder, the Tmax is the time from dosing to the highest level. For orientation: half-life means the time needed for the level to fall by half in the phase considered. Low values mean fast loss, high ones slow loss. As to `O=C(Nc1cccc(C(F)(F)F)c1)Nc1cc(S(=O)(=O)NC2CC2)ccc1-c1ccsc1` [AGI-6780, reference compound], in data set [5], the area under the curve AUC(0-inf) is 559 ng·h/mL, the Cmax turned out to be 191 ng/mL, the Tmax was found to be 2.83 h and the half-life was 1.49 h. For the same compound, the “generation of 2-HG” value in data set [6] was “inhibit the generation of 2-HG”. Also, the “expression of mature markers” value in data set [7] was “enhanced expression of mature markers”.

In turn, `N#CC1(NC(=O)C(F)(F)c2ccc(-c3ccsc3)c(NC(=O)Nc3cccc(C(F)(F)F)c3)c2)CC1` [Example 4, N-(1-cyanocyclopropyl)-2,2-difluoro-2-(4-(thiophen-3-yl)-3-(3-(3-(trifluoromethyl)phenyl)ureido)phenyl)acetamide] yielded an IC50 against IDH2 (R172K, 40-end) of 56.5 nM.

`CC(NC(=O)C1CC1)c1ccc(-c2ccsc2)c(NC(=O)Nc2cccc(C(F)(F)F)c2)c1` (centres unmarked) [Example 27, N-(1-(4-(thiophen-3-yl)-3-(3-(3-(trifluoromethyl)phenyl)ureido)phenyl)ethyl) cyclopropanecarboxamide]: it took 82.9 nM to reach half-maximal inhibition at IDH2 (R172K, 40-end) (IC50).

For the compound `Cc1cc(-c2ccc(C(F)(F)C(=O)NC3CC3)cc2NC(=O)Nc2cccc(C(F)(F)F)c2)n(C)n1` [Example 13, N-cyclopropyl-2-(4-(1,3-dimethyl-1H-pyrazol-5-yl)-3-(3-(3-(trifluoromethyl)phenyl)ureido)phenyl)-2,2-difluoroacetamide], at IDH2 (R172K, 40-end), the half-maximal inhibitory concentration (IC50) was found to be 106 nM.

`O=C(Nc1cccc(C(F)(F)F)c1)Nc1cc(C2(C(=O)NC3CC3)CC2)ccc1-c1ccsc1` [Example 17, N-cyclopropyl-1-(4-(thiophen-3-yl)-3-(3-(3-(trifluoromethyl)phenyl)ureido)phenyl) cyclopropanecarboxamide] gave an IC50 against IDH2 (R172K, 40-end) of 138 nM.

At IDH2 (R172K, 40-end), `CC(C)(C(=O)NC1CC1)c1ccc(-c2ccsc2)c(NC(=O)Nc2ccc3c(c2)C(=O)NC3)c1` [Example 18, N-cyclopropyl-2-methyl-2-(3-(3-(3-oxoisoindol-5-yl)ureido)-4-(thiophen-3-yl)phenyl) propanamide] gave an IC50 of 1230 nM.

Regarding `O=C(Nc1cccc(C(F)(F)F)c1)Nc1cc(C(F)(F)C(=O)NCC(F)(F)F)ccc1-c1ccsc1` [Example 2], inhibition against IDH2 (R172K, 40-end) was half-maximal at 45.5 nM (IC50).

As for `O=C(Nc1cccc(C(F)(F)F)c1)Nc1cc(C(F)(F)C(=O)NC2CC2)ccc1-c1ccccc1` [Example 12, N-cyclopropyl-2,2-difluoro-2-(2-(3-(3-(trifluoromethyl)phenyl)ureido)-[1,1′-biphenyl]-4-yl)acetamide], at IDH2 (R172K, 40-end), the IC50 stood at 53.8 nM.

With `CC(C(=O)NC1CC1)c1ccc(-c2ccsc2)c(NC(=O)Nc2cccc(C(F)(F)F)c2)c1` (centres unmarked) [Example 14, N-cyclopropyl-2-(4-(thiophen-3-yl)-3-(3-(3-(trifluoromethyl)phenyl)ureido)phenyl) propanamide], the IC50 against IDH2 (R172K, 40-end) was 69.9 nM. This IC50 and that of the compound before are within 1.5-fold of each other.

As to `CC(C)NC(=O)C(F)(F)c1ccc(-c2ccsc2)c(NC(=O)Nc2cccc(C(F)(F)F)c2)c1` [Example 3], at IDH2 (R172K, 40-end), the half-maximal inhibitory concentration (IC50) stood at 62.4 nM.

Regarding `O=C(Nc1cccc(C(F)(F)F)c1)Nc1cc(CNC(=O)C2CC2)ccc1-c1ccsc1` [Example 28, N-(4-(thiophen-3-yl)-3-(3-(3-(trifluoromethyl)phenyl)ureido)benzyl) cyclopropanecarboxamide], on IDH2 (R172K, 40-end), the IC50 was 55 nM. For the same compound, in data set [5], the AUC(0-inf) was 844 ng·h/mL, the Cmax is 414 ng/mL, the time to peak (Tmax) came out at 0.33 h and the half-life was 2.34 h. In data set [5], the “half-life (in words)” value is given as “long half-life”, the “metabolism in vivo (in words)” value was “very good metabolism in vivo” and the “plasma concentration compared with AG-6780 at the same dose” value is “higher plasma concentration”.

On to `CC(NC1CC1)c1ccc(-c2ccsc2)c(NC(=O)Nc2cccc(C(F)(F)F)c2)c1` (centres unmarked) [Example 24, 1-(5-(1-(cyclopropylamino)ethyl)-2-(thiophen-3-yl)phenyl)-3-(3-(trifluoromethyl)phenyl)urea], for which 312 nM corresponded to half-maximal inhibition on IDH2 (R172K, 40-end) (IC50).

On IDH2 (R172K, 40-end), `NC(C(=O)NC1CC1)c1ccc(-c2ccsc2)c(NC(=O)Nc2cccc(C(F)(F)F)c2)c1` (centres unmarked) [Example 21, 2-Amino-N-cyclopropyl-2-(4-(thiophen-3-yl)-3-(3-(3-(trifluoromethyl)phenyl)ureido)phenyl)acetamide] came in with an IC50 of 622 nM.

`O=C(Nc1cccc(C(F)(F)F)c1)Nc1cc(C(F)(F)C(=O)NC2COC2)ccc1-c1ccsc1` [Example 5, 2,2-Difluoro-N-(oxetan-3-yl)-2-(4-(thiophen-3-yl)-3-(3-(3-(trifluoromethyl)phenyl)ureido)phenyl)acetamide]: the IC50 on IDH2 (R172K, 40-end) is 29.5 nM. Moreover, in data set [5], the AUC(0-inf) came to 858 ng·h/mL, the Cmax was 495 ng/mL, the Tmax came to 0.42 h and the half-life is 4.37 h. In data set [5], the “half-life (in words)” value is listed as “long half-life”, the “metabolism in vivo (in words)” value was “very good metabolism in vivo” and the “plasma concentration compared with AG-6780 at the same dose” value is “higher plasma concentration”.

On IDH2 (R172K, 40-end), `O=C(Nc1ccc(F)c(C(F)(F)F)c1)Nc1cc(C(F)(F)C(=O)NC2CC2)ccc1-c1ccsc1` [Example 10, N-cyclopropyl-2,2-difluoro-2-(3-(3-(4-fluoro-3-(trifluoromethyl)phenyl)ureido)-4-(thiophen-3-yl)phenyl)acetamide] had an IC50 of 391 nM.

On to `CCC(C(=O)NC1CC1)c1ccc(-c2ccsc2)c(NC(=O)Nc2cccc(C(F)(F)F)c2)c1` (centres unmarked) [Example 20, N-cyclopropyl-2-(4-(thiophen-3-yl)-3-(3-(3-(trifluoromethyl)phenyl)ureido)phenyl) butanamide], for which the half-maximal inhibitory concentration (IC50) against IDH2 (R172K, 40-end) is 362 nM. This IC50 and that of the compound before are within 1.5-fold of each other.

Compound `O=C(Cc1ccc(-c2ccsc2)c(NC(=O)Nc2cccc(C(F)(F)F)c2)c1)NC1CC1` [Example 16] yielded a half-maximal inhibitory concentration (IC50) on IDH2 (R172K, 40-end) of 75.8 nM.

Compound `O=C(Nc1cccc(C(F)(F)F)c1)Nc1cc(C(F)(F)C(=O)NC2CC2)ccc1-c1ccsc1` [Example 1, N-cyclopropyl-2,2-difluoro-2-(4-(thiophen-3-yl)-3-(3-(3-(trifluoromethyl)phenyl)ureido)phenyl)acetamide] had an IC50 on IDH2 (R172K, 40-end) of 14.2 nM.

On to `O=C(Nc1cccc(C(F)(F)F)c1)Nc1cc(C2(C(=O)NC3CC3)CCC2)ccc1-c1ccsc1` [Example 19, N-cyclopropyl-1-(4-(thiophen-3-yl)-3-(3-(3-(trifluoromethyl)phenyl)ureido)phenyl) cyclobutanecarboxamide], for which 87.5 nM corresponded to half-maximal inhibition on IDH2 (R172K, 40-end) (IC50). Against the preceding compound, the IC50 is about 6.2-fold higher.

Take `CC(C)(C(=O)NC1CC1)c1ccc(-c2ccsc2)c(NC(=O)Nc2cccc(C(F)(F)F)c2)c1` [Example 15, N-cyclopropyl-2-methyl-2-(4-(thiophen-3-yl)-3-(3-(3-(trifluoromethyl)phenyl)ureido)phenyl)propanamide]: the IC50 at IDH2 (R172K, 40-end) was found to be 65.7 nM.
